Measured values: patent US4197403A, “4-Aminosubstituted imidazo(1,2-A)quinoxalines” (Westwood Pharmaceuticals Inc., priority 1977, dated 1980)
In brackets after ≈: the same amount, converted by molar mass.

Key:
rat paw edema = test: Rat paw edema assay, oral dosing; assay type: in vivo; details: four hours after drug; for change in vivo at 100 mg/kg / change in vivo at 400 mg/kg: Rattus norvegicus, 4 h, read-out: % Difference from Control
Procedure: (§1) The anti-inflammatory activity of representative compounds of this invention was determined by the rat paw edema assay both by local administration (Table XI below) and by oral dosing (Table XII below). For the oral dosing, the procedure of C. A. Winter, E. A. Risley and G. W. Nuss, Proc. Soc. Exp. Biol. Med. 111, 544 (1962) was employed with measurement taken four hours after the drug was administered.
(§2) Tables XI and XII report the anti-inflammatory activity of the compounds tested as % difference in the edema or swelling as compared with the control. These Tables also give the response in many instances of more than one dose level of the same drug.

Trichophyton ajelloi = test: Antifungal activity, agar dilution method: T. ajelloi; assay type: cell-based; details: Arthroderma uncinatum, read-out: Antifungal Activity, Parts Per Million Inhibitions of Fungus and Yeast Species: T. ajelloi
Procedure: (§3) Various compounds of this invention display antifungal and anti-yeast activity.
(§4) In Table IX below are listed the antifungal activity of a number of compounds encompassed in the present invention. These were determined by the agar dilution method as described in Chapters 2 and 3 of Methods in Microbiology, Vol. 7B, edited by J. R. Norris and D. W. Ribbons, Academic Press, New York, 1972.

[1] = system: Trichophyton mentagrophytes (ATCC No. 8757 and 9129); test: Antifungal activity, agar dilution method: T. mentagrophytes; assay type: cell-based; details: ATCC8757, agar dilution, read-out: Antifungal Activity, Parts Per Million Inhibitions of Fungus and Yeast Species: T. mentagrophytes
Procedure: as §3, §4

[2] = system: Trichophyton rubrum (ATCC No. 10218 and 14001); test: Antifungal activity, agar dilution method: T. rubrum; assay type: cell-based; details: for Antifungal Activity, Parts Per Million Inhibitions of Fungus and Yeast Species: T. rubrum: agar dilution
Procedure: as §3, §4

[3] = Immunosuppressant activity (in words)
[4] = system: carrageenan rat paw edema; test: Rat paw edema assay, local administration; assay type: in vivo; details: injected directly into paw, 1 μg, read-out: % Difference from Control
Procedure: as §1
The local administration tests were carried out similarly except the irritant (carrageenan) and the test compound were injected simultaneously at time zero.
as §2

Candida tropicalis = test: Antifungal activity, agar dilution method: C. tropicalis; assay type: cell-based; details: read-out: Antifungal Activity, Parts Per Million Inhibitions of Fungus and Yeast Species: C. tropicalis
Procedure: as §3, §4

Cc1cccc(C(=O)Nc2ccccc2-n2ccnc2)c1 [Compound 36]
% Difference from Control (rat paw edema; 100 mg/kg): -7% | % Difference from Control (rat paw edema; 400 mg/kg): -68%

O=C(Nc1ccccc1-n1ccnc1)c1cccc(Br)c1 [Compound 59]
MIC (Trichophyton ajelloi): 100 µg/mL (≈ 292 µM) | MIC [1]: 100 µg/mL (≈ 292 µM)

O=C(Nc1cccc(C(F)(F)F)c1)Nc1ccccc1-n1ccnc1 [Compound 82]
MIC (Trichophyton ajelloi): 100 µg/mL (≈ 289 µM) | MIC [1]: 100 µg/mL (≈ 289 µM) | MIC ([2]; Trichophyton rubrum, ATCC10218, agar dilution, read-out: Antifungal Activity, Parts Per Million Inhibitions of Fungus and Yeast Species: T. rubrum): 100 µg/mL (≈ 289 µM)

c1ccc2c(c1)ncc1nccn12 [Compound 109, imidazo[1,2-a]quinoxaline]
immunosuppressant activity [3]: lacks immunosuppressant activity

CCCCCc1nc2ccccc2n2ccnc12 [Compound 114]
change in vivo at 0.001 mg [4]: -68.2%

CCCCCCCc1nc2ccccc2n2ccnc12 [Compound 116]
MIC (Trichophyton ajelloi): 100 µg/mL (≈ 374 µM)

CCCCCCCCCCCCCCCc1nc2ccccc2n2ccnc12 [Compound 119]
Antifungal Activity, Parts Per Million Inhibitions of Fungus and Yeast Species: T. rubrum [2]: 8 Parts Per Million

CCCCCCCCCCCCCCCCCc1nc2ccccc2n2ccnc12 [Compound 120]
Antifungal Activity, Parts Per Million Inhibitions of Fungus and Yeast Species: T. rubrum [2]: 1 Parts Per Million

FC(F)(F)c1nc2ccccc2n2ccnc12 [Compound 122]
change in vivo at 100 mg/kg (rat paw edema; 100 mg/kg): -17% | change in vivo at 400 mg/kg (rat paw edema; 400 mg/kg): -68%

c1ccc(-c2nc3ccccc3n3ccnc23)cc1 [Compound 131, 4-phenylimidazo[1,2-a]quinoxaline]
immunosuppressant activity [3]: only minor activity

CC(=O)Nc1ccc(-c2nc3ccccc3n3ccnc23)cc1 [Compound 155]
change in vivo at 100 mg/kg (rat paw edema; 100 mg/kg): 70% | change in vivo at 400 mg/kg (rat paw edema; 400 mg/kg): -25%

CC(=O)Oc1ccc(-c2nc3ccccc3n3ccnc23)cc1 [Compound 163]
MIC (Candida tropicalis): 100 µg/mL (≈ 330 µM)
